Measured values published in ChEMBL document CHEMBL5506049, “Discovery of Novel Small-Molecule-Based Potential PD-L1/EGFR Dual Inhibitors with High Druggability for Glioblastoma Immunotherapy” (J Med Chem, 2024).

Legend:
cells [1] = conditions: Homo sapiens, U87MG Human EGFR vIII, 72 h
Description: Antiproliferative activity against human U87vIII cells expressing EGFRvIII incubated for 72 hrs by MTT assay

U-87 MG = assay: cells; conditions: Homo sapiens, 72 h
Description: Antiproliferative activity against human U-87 MG cells incubated for 72 hrs by MTT assay

U-251 = assay: cells; conditions: Homo sapiens, U-251, 72 h
Description: Antiproliferative activity against human U-251 cells incubated for 72 hrs by MTT assay

cells [2] = conditions: GL261, 72 h
Description: Antiproliferative activity against human GL261 cells incubated for 72 hrs by MTT assay

Glioblastoma cell line [3] = assay: Antitumor immunity against glioblastoma bearing C57BL/6 mouse model assessed as tumor infiltrating lymphocytes by measuring increase in CD3+CD8+T cells at 100 mg/kg, IG (reference value: 3.44%); format: functional
Glioblastoma cell line [4] = assay: Antitumor immunity against glioblastoma bearing C57BL/6 mouse model assessed as tumor infiltrating lymphocytes by measuring increase in CD3+CD4+T cells at 100 mg/kg, IG (reference value: 0.91%); format: functional
[5] = target: Programmed cell death protein 1/Programmed cell death 1 ligand 1 (Homo sapiens, UniProt Q9NZQ7); assay: Inhibition of PD-1/PD-L1 (unknown origin) interaction assessed as inhibition rate incubated for 1 hr by HTRF assay relative to control; format: protein-complex assay
[6] = In vivo antitumor activity against […] GL261 cells xenografted in C57BL/6 mouse assessed as decrease in tumor weight at 100 mg/kg, IG treated for 21 days relative to control; format: functional; parameters: scale not given: the % may be the effect or the level left; conditions: time 21 day
[7] = In vivo antitumor activity against […] GL261 cells xenografted in C57BL/6 mouse assessed as decrease in tumor volume at 100 mg/kg, IG treated for 21 days relative to control; format: functional; parameters: scale not given: the % may be the effect or the level left; conditions: time 21 day
[8] = In vivo antitumor activity against […] GL261 cells xenografted in C57BL/6 mouse assessed as decrease in PD-L1 expression in tumor tissue at 100 mg/kg, IG treated for 21 days relative to control; format: functional; parameters: scale not given: the % may be the effect or the level left; conditions: time 21 day
[9] = In vivo antitumor activity against […] GL261 cells xenografted in C57BL/6 mouse assessed as decrease in EGFR phosphorylation in tumor tissue at 100 mg/kg, IG treated for 21 days relative to control; format: functional; parameters: scale not given: the % may be the effect or the level left; conditions: time 21 day

Sequence of Programmed cell death protein 1/Programmed cell death 1 ligand 1 (Q15116 whole entry): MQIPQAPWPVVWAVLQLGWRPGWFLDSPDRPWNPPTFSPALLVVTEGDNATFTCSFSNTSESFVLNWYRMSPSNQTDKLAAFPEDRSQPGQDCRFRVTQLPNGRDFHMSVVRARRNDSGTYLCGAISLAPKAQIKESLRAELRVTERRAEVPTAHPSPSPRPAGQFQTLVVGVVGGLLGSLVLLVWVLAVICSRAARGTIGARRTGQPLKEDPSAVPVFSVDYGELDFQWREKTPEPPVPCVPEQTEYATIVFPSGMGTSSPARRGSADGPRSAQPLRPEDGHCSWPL
Sequence of Programmed cell death protein 1/Programmed cell death 1 ligand 1 (Q9NZQ7 whole entry): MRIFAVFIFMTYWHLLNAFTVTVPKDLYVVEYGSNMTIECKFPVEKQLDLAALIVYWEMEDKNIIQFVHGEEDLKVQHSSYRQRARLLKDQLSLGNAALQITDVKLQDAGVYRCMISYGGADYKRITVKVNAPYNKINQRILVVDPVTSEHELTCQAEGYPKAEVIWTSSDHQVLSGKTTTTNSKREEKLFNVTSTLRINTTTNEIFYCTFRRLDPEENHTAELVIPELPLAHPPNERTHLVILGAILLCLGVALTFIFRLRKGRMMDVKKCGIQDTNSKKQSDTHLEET

With `COc1cc(OCc2cccc(-c3ccccc3)c2C)ccc1CNCCCOc1cc2c(Nc3ccc(F)c(Cl)c3)ncnc2cc1OC` the IC50 (cells [1]) was 960 nM, the IC50 (U-87 MG) was 4010 nM and the IC50 (U-251) was 3490 nM. For the same compound, the IC50 (cells [2]) was 5460 nM.
For `COc1cc2ncnc(Nc3ccc(F)c(Cl)c3)c2cc1OCCCNCc1c(OC)cc(OCc2cccc(-c3ccccc3)c2C)cc1OC`, the IC50 (cells [1]) was 1390 nM, the IC50 (U-87 MG) was 1060 nM and the IC50 (U-251) was 1470 nM. It also gave an IC50 (cells [2]) of 2390 nM.
In the case of `COc1cc2ncnc(Nc3ccc(F)c(Cl)c3)c2cc1OCCCCCCCCNCc1ccc(-c2cccc(-c3ccccc3)c2C)nc1OC`, the IC50 (cells [1]) is reported as 2010 nM, the IC50 (U-87 MG) is reported as 1150 nM and the IC50 (U-251) is reported as 3530 nM. The IC50 (cells [2]) was 3300 nM.
In the case of `COc1cc2ncnc(Nc3ccc(F)c(Cl)c3)c2cc1OCCCNCc1ccc(-c2cccc(-c3ccccc3)c2C)nc1OC`, the IC50 (cells [1]) is reported as 820 nM, the IC50 (U-87 MG) is reported as 1080 nM and the IC50 (U-251) is reported as 5120 nM. It also gave an IC50 (cells [2]) of 2630 nM.
Work on `COc1cc(OCc2cccc(-c3ccccc3)c2C)ccc1CNCCCCOc1cc2c(Nc3ccc(F)c(Cl)c3)ncnc2cc1OC` yielded an IC50 (cells [1]) of 800 nM, an IC50 (U-87 MG) of 2600 nM and an IC50 (U-251) of 1470 nM. The IC50 (cells [2]) was 1970 nM.
Work on `COc1cc2ncnc(Nc3ccc(F)c(Cl)c3)c2cc1OCCCCNCc1c(OC)cc(OCc2cccc(-c3ccccc3)c2C)cc1OC` yielded an IC50 (cells [1]) of 360 nM, an IC50 (U-87 MG) of 860 nM and an IC50 (U-251) of 1330 nM. The IC50 (cells [2]) was 1790 nM.
With `Cc1c(COc2cc(OCc3cccc(C#N)c3)c(CNC(C)(C)C(=O)O)cc2Cl)cccc1-c1ccccc1` the IC50 (cells [1]) was > 20000 nM, the Activity (Glioblastoma cell line [3]) was 19.7% and the Activity (Glioblastoma cell line [4]) was 24.7%. The IC50 (U-87 MG) was > 20000 nM, the IC50 (U-251) was > 20000 nM and the IC50 (cells [2]) was > 20000 nM. It also gave an IC50 [5] of 56.2 nM, an Activity [6] of 77.2% and an Activity [7] of 71.1%.
With `COc1cc2ncnc(Nc3ccc(F)c(Cl)c3)c2cc1OCCCCCCNC(=O)C1CCCCN1Cc1c(OC)cc(OCc2cccc(-c3ccccc3)c2C)cc1OC` (configuration not stated) the IC50 (cells [1]) was > 20000 nM, the IC50 (U-87 MG) was > 20000 nM and the IC50 (U-251) was > 20000 nM. For the same compound, the IC50 (cells [2]) was > 20000 nM.
In the case of `COc1cc2ncnc(Nc3ccc(F)c(Cl)c3)c2cc1OCCCN1CCOCC1` [GEFITINIB], the Activity [8] is reported as ~15%, the Activity [9] is reported as ~30% and the Activity [6] is reported as 77.2%. The Activity [7] was 71.2%.
For `COc1cc2ncnc(Nc3ccc(F)c(Cl)c3)c2cc1OCCCCCCNC(=O)C1CCCCN1Cc1ccc(OCc2cccc(-c3ccccc3)c2C)c(C)c1` (configuration not stated), the IC50 (cells [1]) was > 20000 nM, the IC50 (U-87 MG) was > 20000 nM and the IC50 (U-251) was > 20000 nM. The IC50 (cells [2]) was > 20000 nM.
Work on `COc1cc2ncnc(Nc3ccc(F)c(Cl)c3)c2cc1OCCCCNCc1ccc(-c2cccc(-c3ccccc3)c2C)nc1OC` yielded an IC50 (cells [1]) of 2610 nM, an IC50 (U-87 MG) of 1030 nM and an IC50 (U-251) of 2850 nM. For the same compound, the IC50 (cells [2]) was 2720 nM.
`COc1cc2ncnc(Nc3ccc(F)c(Cl)c3)c2cc1OCCNCc1ccc(-c2cccc(-c3ccccc3)c2C)nc1OC` gave an IC50 (cells [1]) of 1140 nM, an IC50 (U-87 MG) of 5760 nM and an IC50 (U-251) of 2640 nM. For the same compound, the IC50 (cells [2]) was 6860 nM.
For `COc1cc2ncnc(Nc3ccc(F)c(Cl)c3)c2cc1OC(=O)N1CCN(Cc2ccc(-c3cccc(-c4ccccc4)c3C)nc2OC)CC1`, the IC50 (cells [1]) was > 20000 nM, the IC50 (U-87 MG) was > 20000 nM and the IC50 (U-251) was > 20000 nM. For the same compound, the IC50 (cells [2]) was > 20000 nM.
With `COc1nc(OCc2cccc(-c3ccccc3)c2C)ccc1CNCCNC(C)=O` the IC50 (cells [1]) was 8030 nM, the IC50 (U-87 MG) was 3720 nM and the IC50 (U-251) was 2980 nM. The IC50 (cells [2]) was 5720 nM.
With `COc1cc2ncnc(Nc3ccc(F)c(Cl)c3)c2cc1OCCCCCNCc1c(OC)cc(OCc2cccc(-c3ccccc3)c2C)cc1OC` the IC50 (cells [1]) was 440 nM, the IC50 (U-87 MG) was 1350 nM and the IC50 (U-251) was 1040 nM. It also gave an IC50 (cells [2]) of 2240 nM.
In the case of `COc1cc2ncnc(Nc3ccc(F)c(Cl)c3)c2cc1OCCCCCCNC(=O)CCN(C)Cc1ccc(-c2cccc(-c3ccccc3)c2C)nc1OC`, the IC50 (cells [1]) is reported as > 20000 nM, the IC50 (U-87 MG) is reported as > 20000 nM and the IC50 (U-251) is reported as > 20000 nM. The IC50 (cells [2]) was > 20000 nM.
Compound `COc1cc2ncnc(Nc3ccc(F)c(Cl)c3)c2cc1OCCNCc1c(OC)cc(OCc2cccc(-c3ccccc3)c2C)cc1OC` has an IC50 (cells [1]) of 2840 nM, an IC50 (U-87 MG) of 3330 nM and an IC50 (U-251) of 1960 nM. The IC50 (cells [2]) was 3220 nM.
With `COc1cc2ncnc(Nc3ccc(F)c(Cl)c3)c2cc1OCCCCCNC(=O)C1CCCCN1Cc1ccc(-c2cccc(-c3ccccc3)c2C)nc1OC` (configuration not stated) the IC50 (cells [1]) was > 20000 nM, the IC50 (U-87 MG) was > 20000 nM and the IC50 (U-251) was > 20000 nM. For the same compound, the IC50 (cells [2]) was > 20000 nM.
Work on `COc1cc2ncnc(Nc3ccc(F)c(Cl)c3)c2cc1OCCCCCNCc1ccc(-c2cccc(-c3ccccc3)c2C)nc1OC` yielded an IC50 (cells [1]) of 530 nM, an IC50 (U-87 MG) of 3380 nM and an IC50 (U-251) of 1350 nM. For the same compound, the IC50 (cells [2]) was 2160 nM.
For `COc1cc2ncnc(Nc3ccc(F)c(Cl)c3)c2cc1OCCCCCNC(=O)C1CCCCN1Cc1c(OC)cc(OCc2cccc(-c3ccccc3)c2C)cc1OC` (configuration not stated), the IC50 (cells [1]) was > 20000 nM, the IC50 (U-87 MG) was > 20000 nM and the IC50 (U-251) was > 20000 nM. The IC50 (cells [2]) was > 20000 nM.
With `COc1cc2ncnc(Nc3ccc(F)c(Cl)c3)c2cc1OCCCCCCCCNC(=O)CN(C)Cc1c(OC)cc(OCc2cccc(-c3ccccc3)c2C)cc1OC` the IC50 (cells [1]) was > 20000 nM, the IC50 (U-87 MG) was > 20000 nM and the IC50 (U-251) was > 20000 nM. The IC50 (cells [2]) was > 20000 nM.
Work on `COc1cc2ncnc(Nc3ccc(F)c(Cl)c3)c2cc1OCCCCCCNCc1ccc(-c2cccc(-c3ccccc3)c2C)nc1OC` yielded an IC50 (cells [1]) of 730 nM, an IC50 (U-87 MG) of 1080 nM and an IC50 (U-251) of 1870 nM. The IC50 (cells [2]) was 3250 nM.
With `COc1cc2ncnc(Nc3ccc(F)c(Cl)c3)c2cc1OC(=O)N1CCN(Cc2c(OC)cc(OCc3cccc(-c4ccccc4)c3C)cc2OC)CC1` the IC50 (cells [1]) was > 20000 nM, the IC50 (U-87 MG) was > 20000 nM and the IC50 (U-251) was > 20000 nM. The IC50 (cells [2]) was > 20000 nM.
With `COc1cc(OCc2cccc(-c3ccccc3)c2C)ccc1CNCCCCOc1cc2c(Nc3cccc(Cl)c3F)ncnc2cc1OC` the IC50 (cells [1]) was 290 nM, the IC50 (U-87 MG) was 840 nM and the IC50 (U-251) was 1290 nM. It also gave an IC50 (cells [2]) of 1240 nM.
With `COc1cc2ncnc(Nc3ccc(F)c(Cl)c3)c2cc1OCCCCCCNCc1c(OC)cc(OCc2cccc(-c3ccccc3)c2C)cc1OC` the IC50 (cells [1]) was 540 nM, the IC50 (U-87 MG) was 2850 nM and the IC50 (U-251) was 1550 nM. The IC50 (cells [2]) was 2760 nM.
In the case of `COc1cc2ncnc(Nc3ccc(F)c(Cl)c3)c2cc1OCCCCNC(=O)C1CCCCN1Cc1ccc(-c2cccc(-c3ccccc3)c2C)nc1OC` (configuration not stated), the IC50 (cells [1]) is reported as > 20000 nM, the IC50 (U-87 MG) is reported as > 20000 nM and the IC50 (U-251) is reported as > 20000 nM. The IC50 (cells [2]) was > 20000 nM.
With `COc1cc2ncnc(Nc3ccc(F)c(Cl)c3)c2cc1OCCCCNCc1ccc(OCc2cccc(-c3ccccc3)c2C)c(C)c1` the IC50 (cells [1]) was 730 nM, the IC50 (U-87 MG) was 890 nM and the IC50 (U-251) was 1380 nM. The IC50 (cells [2]) was 2250 nM.
With `COc1cc2ncnc(Nc3ccc(F)c(Cl)c3)c2cc1OCCCCCNC(=O)CN(C)Cc1c(OC)cc(OCc2cccc(-c3ccccc3)c2C)cc1OC` the IC50 (cells [1]) was 3120 nM, the IC50 (U-87 MG) was 5160 nM and the IC50 (U-251) was > 20000 nM. For the same compound, the IC50 (cells [2]) was > 20000 nM.
